Laboratory results: patent US20250282768A1 (Janssen Pharmaceutica NV, priority 2022, published 2025)

Tested on: p-IKKa levels in L363 (NIK translocated multiple myeloma) cells
Assay: Assay 2: Effect of compounds on p-IKKa levels in L363 (NIK translocated multiple myeloma) cells
Format: cell-based
Conditions: Homo sapiens, L-363, 6 h, read-out: Assay 2 IC50 (nM), p-IKKa (Ser 176/180) in BAFF stimulated L363 cells with MG132, 6 h; average if tested more than once
In short: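 L363 cells incubated overnight ± 250 ng/ml BAFF, then 6 h at 37 °C with compound (0.3% DMSO) ± 10 μM MG132. Lysates assayed for p-IKKa (Ser176/180) by AlphaLISA SureFire. IC50 from sigmoidal fit of % inhibition normalized to BAFF/MG132-stimulated and unstimulated controls.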

| SMILES | IC50 [nM] |
| --- | --- |
| CN1CC[C@@](O)(c2cc(-c3cccc(-c4nc(Nc5nn(C)cc5C#N)ncc4F)c3)no2)C1=O [Example 424, (R)-3-((5-Fluoro-4-(3-(5-(3-hydroxy-1-methyl-2-oxopyrrolidin-3-yl)isoxazol-3-yl)phenyl)pyrimidin-2-yl)amino)-1-methyl-1H-pyrazole-4-carbonitrile] | > 500 |
| CN1CC[C@@](O)(c2cc(-c3cccc(-c4ccnc(Nc5cccnc5)n4)n3)no2)C1=O [Example 247, (R)-3-Hydroxy-1-methyl-3-(3-(6-(2-(pyridin-3-ylamino)pyrimidin-4-yl)pyridin-2-yl)isoxazol-5-yl)pyrrolidin-2-one] | > 500 |
| CN1CC[C@@](O)(c2cc(-c3cccc(-c4ccnc(Nc5nnnn5C)n4)n3)no2)C1=O [Example 321, (R)-3-Hydroxy-1-methyl-3-(3-(6-(2-((1-methyl-1H-tetrazol-5-yl)amino)pyrimidin-4-yl)pyridin-2-yl)isoxazol-5-yl)pyrrolidin-2-one] | > 500 |
| CN1CC[C@@](O)(c2cc(-c3cccc(-c4ccnc(Nc5cnn6ncccc56)n4)n3)no2)C1=O [Example 216, (R)-3-Hydroxy-1-methyl-3-(3-(6-(2-(pyrazolo[1,5-b]pyridazin-3-ylamino)pyrimidin-4-yl)pyridin-2-yl)isoxazol-5-yl)pyrrolidin-2-one] | < 50 |
| CN1CC[C@@](O)(c2cc(-c3cccc(-c4ccnc(Nc5cnn6c5COCC6)n4)n3)no2)C1=O [Example 302, (R)-3-(3-(6-(2-((6,7-Dihydro-4H-pyrazolo[5,1-c][1,4]oxazin-3-yl)amino)pyrimidin-4-yl)pyridin-2-yl)isoxazol-5-yl)-3-hydroxy-1-methylpyrrolidin-2-one] | < 50 |
| CN1CC[C@@](O)(c2cc(-c3cccc(-c4ccnc(N[C@H](CO)c5ccccc5)n4)n3)no2)C1=O [Example 386, (R)-3-Hydroxy-3-(3-(6-(2-(((S)-2-hydroxy-1-phenylethyl)amino)pyrimidin-4-yl)pyridin-2-yl)isoxazol-5-yl)-1-methylpyrrolidin-2-one] | 50 to 500 |
| CN1CC[C@@](O)(c2cc(-c3cccc(-c4ccnc(Nc5ccccn5)n4)n3)no2)C1=O [Example 248, (R)-3-Hydroxy-1-methyl-3-(3-(6-(2-(pyridin-2-ylamino)pyrimidin-4-yl)pyridin-2-yl)isoxazol-5-yl)pyrrolidin-2-one] | 50 to 500 |
| CO[C@@H]1CCOC[C@H]1Nc1nccc(-c2cccc(-c3cc([C@]4(O)CCN(C)C4=O)on3)n2)n1 [Example 338, (R)-3-Hydroxy-3-(3-(6-(2-(((trans)-4-methoxytetrahydro-2H-pyran-3-yl)amino)pyrimidin-4-yl)pyridin-2-yl)isoxazol-5-yl)-1-methylpyrrolidin-2-one] | > 500 |
| CN1CC[C@@](O)(c2cc(-c3cccc(-c4ccnc(Nc5cnc6ccccn56)n4)n3)no2)C1=O [Example 219, (R)-3-Hydroxy-3-(3-(6-(2-(imidazo[1,2-a]pyridin-3-ylamino)pyrimidin-4-yl)pyridin-2-yl)isoxazol-5-yl)-1-methylpyrrolidin-2-one] | > 500 |
| Cc1noc([C@H](C)Nc2nccc(-c3cccc(-c4cc([C@]5(O)CCN(C)C5=O)on4)n3)n2)n1 (single isomer, unassigned) [Example 151] | 50 to 500 |
| COc1nn(CC(C)(C)O)cc1Nc1nccc(-c2cccc(-c3cc([C@]4(O)CCN(C)C4=O)on3)n2)n1 [Example 49, (R)-3-Hydroxy-3-(3-(6-(2-((1-(2-hydroxy-2-methylpropyl)-3-methoxy-1H-pyrazol-4-yl)amino)pyrimidin-4-yl)pyridin-2-yl)isoxazol-5-yl)-1-methylpyrrolidin-2-one] | < 50 |
| CN1CC[C@@](O)(c2cc(-c3cccc(-c4nc(Nc5cnn(C)c5)ncc4F)c3)no2)C1=O [Example 423, (R)-3-(3-(3-(5-Fluoro-2-((1-methyl-1H-pyrazol-4-yl)amino)pyrimidin-4-yl)phenyl)isoxazol-5-yl)-3-hydroxy-1-methylpyrrolidin-2-one] | > 500 |
| CN1CC[C@@](O)(c2cc(-c3cccc(-c4ccnc(NC5CSC5)n4)n3)no2)C1=O [Example 446, (R)-3-Hydroxy-1-methyl-3-(3-(6-(2-(thietan-3-ylamino)pyrimidin-4-yl)pyridin-2-yl)isoxaozl-5-yl)pyrrolidin-2-one] | 50 to 500 |
| CN1CC[C@@](O)(c2cc(-c3cccc(-c4ccnc(NC5CCOCC5)n4)n3)no2)C1=O [Example 452, (R)-3-Hydroxy-1-methyl-3-(3-(6-(2-((tetrahydro-2H-pyran-4-yl)amino)pyrimidin-4-yl)pyridin-2-yl)isoxazol-5-yl)pyrrolidin-2-one] | 50 to 500 |
| COc1cc(-c2cc([C@]3(O)CCN(C)C3=O)on2)nc(-c2ccnc(Nc3ccn(C)n3)n2)c1 [Example 146, (R)-3-Hydroxy-3-(3-(4-methoxy-6-(2-((1-methyl-1H-pyrazol-3-yl)amino)pyrimidin-4-yl)pyridin-2-yl)isoxazol-5-yl)-1-methylpyrrolidin-2-one] | < 50 |
| CN1CC[C@@](O)(c2cc(-c3cccc(-c4ccnc(NC5(C6CC6)CC5)n4)n3)no2)C1=O [Example 443, (R)-3-(3-(6-(2-([1,1′-Bi(cyclopropan)]-1-ylamino)pyrimidin-4-yl)pyridin-2-yl)isoxazol-5-yl)-3-hydroxy-1-methylpyrrolidin-2-one] | 50 to 500 |
| CN1CC[C@@](O)(c2cc(-c3cccc(-c4ccnc(Nc5cc(F)n(C)n5)n4)n3)no2)C1=O [Example 295, (R)-3-(3-(6-(2-((5-Fluoro-1-methyl-1H-pyrazol-3-yl)amino)pyrimidin-4-yl)pyridin-2-yl)isoxazol-5-yl)-3-hydroxy-1-methylpyrrolidin-2-one] | < 50 |
| C[C@@H](Nc1nccc(-c2cccc(-c3cc([C@]4(O)CCN(C)C4=O)on3)n2)n1)C(=O)N1CCC(F)(F)C1 [Example 173, (R)-3-(3-(6-(2-(((R)-1-(3,3-Difluoropyrrolidin-1-yl)-1-oxopropan-2-yl)amino)pyrimidin-4-yl)pyridin-2-yl)isoxazol-5-yl)-3-hydroxy-1-methylpyrrolidin-2-one] | > 500 |
| CN1CC[C@@](O)(c2cc(-c3cccc(-c4ccnc(Nc5ccn(C6CC6)n5)n4)n3)no2)C1=O [Example 212, (R)-3-(3-(6-(2-((1-Cyclopropyl-1H-pyrazol-3-yl)amino)pyrimidin-4-yl)pyridin-2-yl)isoxazol-5-yl)-3-hydroxy-1-methylpyrrolidin-2-one] | < 50 |
| CN1CC[C@@](O)(c2cc(-c3cccc(-c4ccnc(NC5CC(C(F)(F)F)C5)n4)n3)no2)C1=O (stereo partly drawn) [Example 445, (R)-3-Hydroxy-1-methyl-3-(3-(6-(2-((3-(trifluoromethyl)cyclobutyl)amino)pyrimidin-4-yl)pyridin-2-yl)isoxazol-5-yl)pyrrolidin-2-one] | > 500 |
| CN1CC[C@@](O)(c2cc(-c3cccc(-c4ccnc(Nc5cnn6c5CCC6)n4)n3)on2)C1=O [Example 134, (R)-3-(5-(6-(2-((5,6-Dihydro-4H-pyrrolo[1,2-b]pyrazol-3-yl)amino)pyrimidin-4-yl)pyridin-2-yl)isoxazol-3-yl)-3-hydroxy-1-methylpyrrolidin-2-one] | < 50 |
| CN1CC[C@@](O)(c2cc(-c3cccc(-c4ccnc(Nc5cc6n(n5)CCNC6)n4)c3)no2)C1=O [Example 416, (R)-3-Hydroxy-1-methyl-3-(3-(3-(2-((4,5,6,7-tetrahydropyrazolo[1,5-a]pyrazin-2-yl)amino)pyrimidin-4-yl)phenyl)isoxazol-5-yl)pyrrolidin-2-one] | > 500 |
| C[C@@H]1C[C@@](O)(c2cc(-c3cccc(-c4ccnc(Nc5ccn(C)n5)n4)n3)no2)C(=O)N1C [Example 92, (3R,5R)-3-Hydroxy-1,5-dimethyl-3-(3-(6-(2-((1-methyl-1H-pyrazol-3-yl)amino)pyrimidin-4-yl)pyridin-2-yl)isoxazol-5-yl)pyrrolidin-2-one] | 50 to 500 |
| CN1CC[C@@](O)(c2cc(-c3cccc(-c4ccnc(NC5CCSC5)n4)n3)no2)C1=O (mixture of isomers) [Example 456, (3R)-3-Hydroxy-1-methyl-3-(3-(6-(2-((tetrahydrothiophen-3-yl)amino)pyrimidin-4-yl)pyridin-2-yl)isoxazol-5-yl)pyrrolidin-2-one] | 50 to 500 |
| CN1CC[C@@](O)(c2cc(-c3cccc(-c4ccnc(Nc5ncnc6c5COCC6)n4)n3)no2)C1=O [Example 310, (R)-3-(3-(6-(2-((7,8-Dihydro-5H-pyrano[4,3-d]pyrimidin-4-yl)amino)pyrimidin-4-yl)pyridin-2-yl)isoxazol-5-yl)-3-hydroxy-1-methylpyrrolidin-2-one] | > 500 |
| CN1CC[C@@](O)(c2cc(-c3cccc(-c4ccnc(Nc5ncn(CC(F)(F)F)n5)n4)n3)no2)C1=O [Example 305, (R)-3-Hydroxy-1-methyl-3-(3-(6-(2-((1-(2,2,2-trifluoroethyl)-1H-1,2,4-triazol-3-yl)amino)pyrimidin-4-yl)pyridin-2-yl)isoxazol-5-yl)pyrrolidin-2-one] | 50 to 500 |
| CN1CC[C@@](O)(c2cc(-c3cccc(-c4ccnc(Nc5cnn6cccnc56)n4)c3)no2)C1=O [Example 18, (R)-3-Hydroxy-1-methyl-3-(3-(3-(2-(pyrazolo[1,5-a]pyrimidin-3-ylamino)pyrimidin-4-yl)phenyl)isoxazol-5-yl)pyrrolidin-2-one] | > 500 |
| CN(C)C[C@H](Nc1nccc(-c2cccc(-c3cc([C@]4(O)CCN(C)C4=O)on3)n2)n1)c1ccccc1 [Example 396, (R)-3-(3-(6-(2-(((R)-2-(Dimethylamino)-1-phenylethyl)amino)pyrimidin-4-yl)pyridin-2-yl)isoxazol-5-yl)-3-hydroxy-1-methylpyrrolidin-2-one] | > 500 |
| Cc1nn(C2CCOCC2)cc1Nc1nccc(-c2cccc(-c3cc([C@]4(O)CCN(C)C4=O)on3)n2)n1 [Example 233, (R)-3-Hydroxy-1-methyl-3-(3-(6-(2-((3-methyl-1-(tetrahydro-2H-pyran-4-yl)-1H-pyrazol-4-yl)amino)pyrimidin-4-yl)pyridin-2-yl)isoxazol-5-yl)pyrrolidin-2-one] | < 50 |
